# Where two headings read alike, the source gives them in different places.
# Columns and labels:
# [1] = target: T1, human dopamine transporter (DAT) (Homo sapiens, UniProt Q01959); experiment: Reuptake inhibition assay, [3H]-dopamine uptake in HEK-DAT cells; type: cell-based
# T1 construct: expressed in transfected cells
# [2] = target: T2, human serotonin transporter (SERT) (Homo sapiens, UniProt P31645); experiment: Reuptake inhibition assay, [3H]5-HT uptake in HEK-SERT cells; type: cell-based; conditions: HEK293 cells expressing human SERT, 0.4 μM [3H]5-HT, 1 min
# T2 construct: expressed in transfected cells
# T2 sequence (P31645 whole entry): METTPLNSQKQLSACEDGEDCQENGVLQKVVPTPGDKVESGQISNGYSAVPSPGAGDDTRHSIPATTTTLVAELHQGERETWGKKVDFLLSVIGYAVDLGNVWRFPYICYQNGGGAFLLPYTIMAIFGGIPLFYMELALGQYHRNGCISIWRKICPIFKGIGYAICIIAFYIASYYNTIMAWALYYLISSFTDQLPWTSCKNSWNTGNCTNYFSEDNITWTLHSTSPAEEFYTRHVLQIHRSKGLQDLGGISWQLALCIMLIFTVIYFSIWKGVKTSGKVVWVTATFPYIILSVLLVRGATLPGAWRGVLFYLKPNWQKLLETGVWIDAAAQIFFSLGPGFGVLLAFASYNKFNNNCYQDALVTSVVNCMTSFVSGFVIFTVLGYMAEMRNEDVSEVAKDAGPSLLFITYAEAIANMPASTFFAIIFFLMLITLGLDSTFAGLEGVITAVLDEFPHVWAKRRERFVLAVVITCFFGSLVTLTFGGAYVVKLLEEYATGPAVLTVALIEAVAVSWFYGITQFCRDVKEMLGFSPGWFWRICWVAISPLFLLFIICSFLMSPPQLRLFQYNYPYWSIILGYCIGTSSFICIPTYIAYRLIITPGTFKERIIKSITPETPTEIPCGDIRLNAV
# [3] = target: T3, human nor-epinephrine transporter (NET) (Homo sapiens, UniProt P23975); experiment: Reuptake inhibition assay, [3H]MPP+ uptake in HEK-NET cells; type: cell-based; conditions: HEK293 cells expressing human NET, 0.05 μM [3H]MPP+, 3 min
# T3 construct: expressed in transfected cells
# T3 sequence (P23975 whole entry): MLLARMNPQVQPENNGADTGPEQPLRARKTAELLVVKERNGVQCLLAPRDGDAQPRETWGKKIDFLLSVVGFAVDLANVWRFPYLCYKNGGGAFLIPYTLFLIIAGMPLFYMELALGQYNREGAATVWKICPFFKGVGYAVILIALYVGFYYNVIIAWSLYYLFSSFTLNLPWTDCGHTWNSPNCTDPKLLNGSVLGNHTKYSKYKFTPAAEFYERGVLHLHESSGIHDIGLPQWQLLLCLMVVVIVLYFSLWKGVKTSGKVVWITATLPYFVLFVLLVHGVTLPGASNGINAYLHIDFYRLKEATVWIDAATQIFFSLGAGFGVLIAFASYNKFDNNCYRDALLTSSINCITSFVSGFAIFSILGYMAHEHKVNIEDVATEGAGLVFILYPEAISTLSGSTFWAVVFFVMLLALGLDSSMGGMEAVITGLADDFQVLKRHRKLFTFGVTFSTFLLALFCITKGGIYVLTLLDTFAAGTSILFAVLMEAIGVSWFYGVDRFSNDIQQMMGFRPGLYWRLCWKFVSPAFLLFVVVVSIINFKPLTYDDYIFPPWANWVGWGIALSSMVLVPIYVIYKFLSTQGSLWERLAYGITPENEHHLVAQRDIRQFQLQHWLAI
# [4] = system: Adult male Sprague-Dawley rats; conditions: for chow intake vs vehicle treatment / lever pressing vs vehicle treatment: TBZ 1.0 mg/kg plus vehicle vs vehicle/vehicle
# Protocol: Rats were assessed using the fixed ratio 5/chow feeding choice test.
# Adult male Sprague-Dawley rats (Envigo Sprague Dawley, Indianapolis, Ind., USA; weights 275-299 g upon arrival) were pair-housed in a colony maintained at 23° C., with a 12-h light/dark cycle (lights on 07:00). Rats were food deprived to 85% of their free-feeding body weight for operant training and allowed modest growth throughout the experiment. Water was available ad libitum in the home cages.
# Behavioural sessions were conducted in operant chambers (28×23×23 cm3; Med Associates, Fairfax, Vt.) with 30 minute sessions 5 days/week. Rats were initially trained to lever press on a continuous reinforcement FR1 schedule (high-carbohydrate 45 mg pellets, Bio-Serv, Frenchtown, N.J.) and then shifted to the FR5 schedule. After 5 weeks of training on the FR5 schedule, chow was introduced. Weighed amounts of laboratory chow (Laboratory Diet, 5P00 Prolab RMH 3000, Purina Mills, St. Louis, Mo.; typically 15-20 g) were concurrently available on the floor of the chamber during the FR5/chow feeding choice task sessions. At the end of each 30 minute session, rats were immediately removed from the chambers, number of lever presses was recorded, and the amount of chow consumed was determined by weighing the remaining food (including spillage). Rats were trained on the FR5/chow feeding choice procedure for 5 weeks, after which drug testing began. On baseline and drug treatment days, rats consumed all of the operant pellets that were delivered during each session.
# The DMSO/Tween 80/saline solution was administered as the vehicle control. TBZ was obtained from Tocris Bioscience (Ellisville, Mo.) and was dissolved in DMSO, 0.9% saline, and titrated with HCl. The DMSO/saline solution was administered as the vehicle control. The TBZ dose was 1.0 mg/kg.
# The experiment used a within-groups design, with each rat receiving each drug treatment in a randomly varied order (one treatment per week, with none of the treatment sequences repeated across different animals).
# Total number of lever presses and gram quantity of chow intake from the 30 minute sessions were analysed using repeated measures ANOVA. […] When there was a significant ANOVA, non-orthogonal planned comparisons were performed, using the overall error term to assess differences between each treatment and the control condition.
# Male Sprague-Dawley rats = experiment: Holeboard test (reference memory index, RMI); type: in vivo, rat
# Protocol: Male Sprague-Dawley rats (17 to 18 weeks and 22 to 23 months old), bred and maintained in the Core Unit of Biomedical Research, Division of Laboratory Animal Science and Genetics, Medical University of Vienna were used. The animals were transferred to a separate experimental room one week before the start of the experimental procedure and kept there throughout the experiment individually in standard Makrolon cages filled with autoclaved woodchips temperature: 22±2° C.; humidity: 55±5%; 12 h artificial light/12 h dark cycle: light on at 7:00 am). The study was carried out according to the guidelines of the Ethics committee, Medical University of Vienna, and were approved by the Federal Ministry of Education, Science and Culture, Austria.
# The holeboard (1 m×1 m) was made of black plastic and was surrounded by translucent plexiglass walls. The walls were equipped with spatial cues. Distal cues were provided by room structures outside the board. Four out of sixteen regularly arranged holes (diameter and depth 7 cm) were baited (dustless precision pellets, 45 mg, Bioserv®). The pattern of baited holes remained the same during the entire test. To avoid olfactory orientation pellets were also present in an area below the board. Prior to the experiment for three days the rats were handled for 15 min to get familiarized to the experimenter, followed by two days of habituation to the hole-board during which the animals could explore the maze for 15 min each day with access to food pellets. The weight of each rat was reduced by food restriction to reach 85% of its initial body weight before the start of the experiment. Tap water was given ad libitum. Rats were trained for three days (five trials on day one, four trials on day 2 and a retention trial at day 3). Every trial lasted for 120 s or until all four pellets were found. The apparatus was cleaned with 0.1% Incidin® (Ecolab, Dusseldorf, Germany) between trials to remove odor cues. The interval between two successive trials for an individual was 20 min. A camera mounted on the room ceiling recorded the performance of the rats in the maze. […] To compare rats with similar levels of motivation, rats with less than 40-hole visits in total over the ten trials were excluded from the analysis. Reference memory errors were noted as the number of visits to the unbaited holes. The Reference Memory Index (RMI) was calculated using the formula (first+revisits of baited holes)/total visits of all holes. All behavioral training/testing was performed during the light phase of the light-dark cycle.
# [5] = HEK293 cells expressing human DAT, 0.2 μM [3H]-dopamine, 1 min, read-out: IC50, inhibition of DAT-mediated dopamine reuptake
# [6] = p<0.001, listed as Tetrabenazine
# T1 sequence (Q01959 whole entry): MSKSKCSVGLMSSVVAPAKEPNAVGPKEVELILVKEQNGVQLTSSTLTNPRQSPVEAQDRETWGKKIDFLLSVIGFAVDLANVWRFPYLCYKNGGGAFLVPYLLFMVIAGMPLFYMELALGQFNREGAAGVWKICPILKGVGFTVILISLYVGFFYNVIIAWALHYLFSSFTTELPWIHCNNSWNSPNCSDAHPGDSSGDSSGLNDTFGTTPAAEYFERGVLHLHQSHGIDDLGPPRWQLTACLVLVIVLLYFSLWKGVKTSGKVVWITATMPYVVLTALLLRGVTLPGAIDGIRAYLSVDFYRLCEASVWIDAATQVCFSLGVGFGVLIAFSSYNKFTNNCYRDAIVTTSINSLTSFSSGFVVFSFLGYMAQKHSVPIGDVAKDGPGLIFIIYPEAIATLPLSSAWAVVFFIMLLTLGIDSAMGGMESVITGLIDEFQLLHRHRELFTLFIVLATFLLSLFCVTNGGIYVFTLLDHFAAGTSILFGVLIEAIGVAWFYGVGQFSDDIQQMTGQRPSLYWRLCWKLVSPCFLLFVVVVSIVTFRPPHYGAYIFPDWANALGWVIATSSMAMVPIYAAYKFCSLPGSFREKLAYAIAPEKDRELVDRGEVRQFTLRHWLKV
structure (smiles),measurement,setting,value
"[O-][S@+](Cc1cncs1)C(c1ccccc1)c1ccccc1 [Compound C2, (R)-5-(diphenylmethanesulfinylmethyl)-1,3-thiazole]",IC50,[1]; [5],22.3 µM
"[O-][S@@+](Cc1cncs1)C(c1ccccc1)c1ccccc1 [Compound C1, (S)-5((diphenylmethanesulfinyl)-methyl-1,3-thiazole)]",inhibition of SERT,[2],negligible
same,inhibition of NET,[3],negligible
same,IC50,[1],2.8 µM
same,effect on TBZ-induced increase of chow intake,"[4]; 24.0 mg/kg with TBZ 1.0 mg/kg vs TBZ/vehicle, 30 minute session, p<0.001",significantly attenuated the effects of TBZ
same,effect on TBZ-induced decrease of lever pressing,"[4]; 24.0 mg/kg with TBZ 1.0 mg/kg vs TBZ/vehicle, 30 minute session, p<0.01",significantly attenuated the effects of TBZ
same,reversal of the effort-related effects of tetrabenazine,[4]; highest dose (24.0 mg/kg) co-administered with TBZ 1.0 mg/kg,partially but significantly reversed the effects of tetrabenazine
same,"Reference Memory Index (RMI) vs controls, entire training","Male Sprague-Dawley rats; old male rats (22 to 23 months), 10 mg/kg body weight, Tukey post hoc p=0.021",significantly enhanced RMI
same,"Reference Memory Index (RMI) vs controls, entire training","Male Sprague-Dawley rats; old male rats, 1 mg, p=0.357",performed similar as compared to controls
same,"Reference Memory Index (RMI) vs controls, entire training","Male Sprague-Dawley rats; old male rats, 5 mg, p=0.171",performed similar as compared to controls
same,"RMI vs vehicle, day 1","Male Sprague-Dawley rats; old male rats, 10 mg, day 1, p=0.032",significantly enhanced RMI
same,"RMI vs vehicle, day 2","Male Sprague-Dawley rats; old male rats, 10 mg, day 2, p<0.001",significant treatment effect
same,"RMI vs controls, retention trial at day 3","Male Sprague-Dawley rats; old male rats, 10 mg, day 3, p=0.003",higher RMI
"COc1cc2c(cc1OC)C1CC(=O)C(CC(C)C)CN1CC2 (stereo not drawn) [TBZ, 9,10-dimethoxy-3-(2-methylpropyl)-1,3,4,6,7, 11b-hexahydrobenzo[a]quinolizin-2-one]",chow intake vs vehicle treatment,[4]; p<0.001,significantly increased chow intake
same,lever pressing vs vehicle treatment,[4]; p<0.001,significantly decreased lever pressing
same,chow intake vs vehicle treatment,[4]; [6],increased chow intake
same,lever pressing vs vehicle treatment,[4]; [6],decreased lever pressing
"[O-][S+](Cc1cncs1)C(c1ccccc1)c1ccccc1 (racemic) [Compound C3, 5-(diphenylmethanesulfinylmethyl)-1,3-thiazole]",IC50,[1]; [5],4.6 µM

# From patent US20210380545A1, “(S)-ENANTIOMERIC FORM OF A HETEROCYCLIC COMPOUND HAVING MOTIVATION IMPROVING AND/OR REFERENCE MEMORY ENHANCING ACTIVITY” (Red Bull GmbH, priority 2018, published 2021)
